This is an account of results in ChEMBL document CHEMBL6153031, “Impact of the hydrophilic-lipophilic balance of free-base and Zn(II) tricationic pyridiniumporphyrins and irradiation wavelength in PDT against the melanoma cell lines” (Eur J Med Chem, 2025).

The nature of data set [1]: Drug uptake in human MeWo cells at 1 uM measured at 37 degC after 6 hrs by fluorescence based analysis. It counts as ADME, cell-based.
The nature of data set [2]: Drug uptake in human HDF cells at 1 uM measured at 37 degC after 6 hrs by fluorescence based analysis. It counts as ADME, cell-based.
A short description of data set [3]: Cytotoxicity against human HDF cells assessed as reduction in cell viability measured after 36 to 48 hrs by MTT assay. The format is toxicity, cell-based. For orientation: Formazan colour is commonly taken as a measure of viable cells.
The nature of data set [4]: Cytotoxicity against human HDF cells assessed as reduction in cell viability incubated for 6 hrs followed by irradiation for 30 mins with light at wavelength of 643 nm and measured after 36 to 48 hrs by MTT assay. It counts as toxicity, cell-based.
Data set [5] in a line: Cytotoxicity against human HDF cells assessed as reduction in cell viability incubated for 6 hrs followed by irradiation for 30 mins with light at wavelength of 606 nm and measured after 36 to 48 hrs by MTT assay. It counts as toxicity, cell-based.
Data set [6] in a line: Cytotoxicity against human MeWo cells assessed as reduction in cell viability measured after 36 to 48 hrs by MTT assay. It counts as toxicity, cell-based.
The nature of data set [7]: Phototoxicity against human MeWo cells assessed as reduction in cell viability incubated for 6 hrs followed by irradiation for 30 mins with light at wavelength of 643 nm and measured after 36 to 48 hrs by MTT assay. It counts as functional, cell-based. The settings on record: light or radiation study.
Data set [8] can be described thus: Phototoxicity against human MeWo cells assessed as reduction in cell viability incubated for 6 hrs followed by irradiation for 30 mins with light at wavelength of 606 nm and measured after 36 to 48 hrs by MTT assay. It counts as functional, cell-based. The settings on record: light or radiation study.
Data set [9] can be described thus: Cytotoxicity against human A-375 cells assessed as reduction in cell viability measured after 36 to 48 hrs by MTT assay. The format is toxicity, cell-based.
Data set [10] is described as follows: Phototoxicity against human A-375 cells assessed as reduction in cell viability incubated for 6 hrs followed by irradiation for 30 mins with light at wavelength of 643 nm and measured after 36 to 48 hrs by MTT assay. The format is functional, cell-based. Conditions: A-375, light or radiation study; call rule not given here.
Data set [11] in a line: Phototoxicity against human A-375 cells assessed as reduction in cell viability incubated for 6 hrs followed by irradiation for 30 mins with light at wavelength of 606 nm and measured after 36 to 48 hrs by MTT assay. The settings on record: A-375, light or radiation study. It counts as functional, cell-based.
Data set [12] in a line: Phototoxicity against human MeWo cells assessed as cell proliferation rate at 1 uM incubated for 6 hrs followed by irradiation for 30 mins with light at wavelength of 606 nm and measured after 36 to 48 hrs by MTT assay. The settings on record: light or radiation study, time 2550-3270 min, read-out: Activity. It counts as functional.
A short description of data set [13]: Phototoxicity against human MeWo cells assessed as cell proliferation rate at 1 uM incubated for 6 hrs followed by irradiation for 30 mins with light at wavelength of 643 nm and measured after 36 to 48 hrs by MTT assay. The format is functional. The settings on record: light or radiation study, time 2550-3270 min, read-out: Activity.
Data set [14] in a line: Cytotoxicity against human HDF cells assessed as cell proliferation rate at 1 uM incubated for 6 hrs followed by irradiation for 30 mins with light at wavelength of 606 nm and measured after 36 to 48 hrs by MTT assay. The format is toxicity, cell-based. The settings on record: time 2550-3270 min, read-out: Activity.
A short description of data set [15]: Cytotoxicity against human HDF cells assessed as cell proliferation rate at 1 uM incubated for 6 hrs followed by irradiation for 30 mins with light at wavelength of 643 nm and measured after 36 to 48 hrs by MTT assay. It counts as toxicity, cell-based. The settings on record: time 2550-3270 min, read-out: Activity.
Data set [16] in a line: Phototoxicity against human MeWo cells assessed as reduction in cell proliferation at 1 uM incubated for 6 hrs followed by irradiation for 30 mins with light at wavelength of 606 nm and measured after 36 to 48 hrs by MTT assay. The format is functional. The settings on record: light or radiation study, time 2550-3270 min.
Data set [17] can be described thus: Phototoxicity against human A-375 cells assessed as reduction in cell proliferation at 1 uM incubated for 6 hrs followed by irradiation for 30 mins with light at wavelength of 606 nm and measured after 36 to 48 hrs by MTT assay. Conditions: A-375, light or radiation study, time 2550-3270 min. The format is functional.
Data set [18] in a line: Cytotoxicity against human HDF cells assessed as reduction in cell proliferation at 1 uM incubated for 6 hrs followed by irradiation for 30 mins with light at wavelength of 606 nm and measured after 36 to 48 hrs by MTT assay. Conditions: time 2550-3270 min. It counts as toxicity, cell-based.
The nature of data set [19]: Selectivity index, ratio of IC50 for cytotoxicity against human HDF cells incubated for 6 hrs followed by irradiation for 30 mins with light at wavelength of 606 nm and measured after 36 to 48 hrs to IC50 for phototoxicity against human MeWo cells incubated for 6 hrs followed by irradiation for 30 mins with light at wavelength of 606 nm and measured after 36 to 48 hrs. It counts as toxicity, cell-based. Conditions: HDF cells versus MeWo cells, read-out: Ratio IC50.

The nature of data set [20]: Selectivity index, ratio of IC50 for cytotoxicity against human HDF cells incubated for 6 hrs followed by irradiation for 30 mins with light at wavelength of 606 nm and measured after 36 to 48 hrs to IC50 for phototoxicity against human A-375 cells incubated for 6 hrs followed by irradiation for 30 mins with light at wavelength of 606 nm and measured after 36 to 48 hrs. It counts as toxicity, cell-based. Conditions: HDF cells versus A-375 cells, read-out: Ratio IC50.

Data set [21] can be described thus: Drug uptake in cytoplasmic organelles in human MeWo cells at 5 uM incubated for 6 hrs by DIOC6(3) dye based fluorescence microscopy. It counts as ADME, cell-based.
A short description of data set [22]: Drug uptake in nucleus in human MeWo cells at 5 uM incubated for 6 hrs by DIOC6(3) dye based fluorescence microscopy. It counts as ADME, cell-based.
Data set [23] is described as follows: Drug uptake in cytoplasmic organelles in human HDF cells at 5 uM incubated for 6 hrs by DIOC6(3) dye based fluorescence microscopy. The format is ADME, cell-based.
Data set [24] can be described thus: Drug uptake in nucleus in human HDF cells at 5 uM incubated for 6 hrs by DIOC6(3) dye based fluorescence microscopy. The format is ADME, cell-based.

Structures are written as SMILES. A value given as a limit tells only on which side of the number the result lay.

As to `CCCCCCCCCCCCCC(=O)Nc1ccc(-c2c3nc(c(-c4ccc[n+](C)c4)c4ccc([nH]4)c(-c4ccc[n+](C)c4)c4nc(c(-c5ccc[n+](C)c5)c5ccc2[nH]5)C=C4)C=C3)cc1.[Cl-].[Cl-].[Cl-]`, the Drug uptake entry in data set [1] is reported as “Active”; in data set [2] it was “Active”; in [21], “Active”; in data set [22], “Not_active”; in [23] it was “Active”; in [24], “Not_active”. Also, the IC50 in data set [3] is above 100000 nM; in data set [4], 780 nM; in [5], 4600 nM; in data set [6] it was above 100000 nM; in data set [7], 660 nM; in [8] it was 1440 nM. Besides, the IC50 is above 100000 nM in [9], 90 nM in [10] and 310 nM in [11]. For the same compound, the figures for the growth at 1 µM in [12] and in data set [13] were 60% and 40%, respectively. The viability at 1 µM in [14] is above 80%; in data set [15] it was around 30%. The inhibition at 1 µM stood at 50% in [16], 90% in data set [17] and 10% in data set [18]. The selectivity ratio in [19] came out at 3.2; in data set [20] it was 14.8.

By IC50 is commonly meant the concentration needed to halve the response being measured. As a reminder, the inhibition is the change of the read-out against control, counted positive when it falls.
